Assay [1] relates to SKBR3 (PIK3CA WT) cells, pSer473 AKT. The assay can be described thus: pS473 AKT assay in SKBR3 cells. The class given is cell-based. The settings on record: Homo sapiens, SK-BR-3, treated 2 h, read-out: SKBR3_IC50. On the procedure: (§1) SKBR3 (PIK3CA WT), MCF7 (PIK3CA E545K), and T47D (PIK3CA H1047R) cells were cultured using 10-cm petri dishes with recommended medium. One day before the assay, cells were seeded in 96-well plates. After overnight incubation, cells were treated with different concentrations of PI3Kα inhibitors for 2 h. Cells were then fixed using 4% paraformaldehyde at room temperature for 20 min. Cells were aspirated with 4% paraformaldehyde, and washed using 1× regular phosphate buffered saline 3 times, 5 min each. Any residual phosphate buffered saline was aspirated and cells were blocked using 10% goat serum containing 1% bovine serum albumin and 0.3% Triton X-100 at room temperature for 1 h. Without any additional washing, primary antibodies (rabbit anti-pSer473 AKT) were diluted using blocking buffer and added at a final volume of 50 microliter per well. Assay plates with primary antibodies were maintained overnight at 4° C. Cells were washed using 1× regular phosphate buffered saline 3 times, 5 min each. After the final wash, cells were incubated with horseradish peroxidase-conjugated secondary antibodies (goat Anti-rabbit IgG) and diluted using the same blocking buffer at room temperature for 1 h. Cells were then washed thoroughly using 1× regular phosphate buffered saline 3 times, 5 min each, and any residual phosphate buffered saline was aspirated. Super-Signal ELISA Pico Chemiluminescent Substrate was then added at a final volume of 100 microliter per well. Plates were read on a i3x Multi-Mode Microplate Reader and IC50 values calculated using GraphPad Prism software.
(§2) Results of the assay described above are presented in Table A. “++++” indicates an IC50 less than 1000 nM; “+++” indicates an IC50 greater than or equal to 1000 nM but less than 5000 nM; “++” indicates an IC50 greater than or equal to 5000 nM but less than 10000 nM; and “+” indicates an IC50 greater than or equal to 10000 nM.

Assay [2] relates to T47D (PIK3CA H1047R) cells, pSer473 AKT. The assay can be described thus: pS473 AKT assay in T47D cells. The class given is cell-based. The settings on record: Homo sapiens, treated 2 h, read-out: T47D_IC50. The method, then:
as §1, §2

Where only a bound is given, the exact number is not on record here.

For the compound `Nc1nn2c(=O)c3c(c4cc(NC(=O)c5cc(F)cc(C(F)(F)F)c5)c(Oc5cc(F)ccc5Cl)c1c42)CCC3` [Example 74, N-(4-Amino-3-(2-chloro-5-fluorophenoxy)-7-oxo-7,8,9,10-tetrahydrocyclopenta[c]pyrazolo[4,5,1-ij]quinolin-2-yl)-3-fluoro-5-(trifluoromethyl)benzamide], the IC50 in assay [1] and in assay [2] was less than 1000 nM throughout.
`CS(=O)(=O)n1nc(N)c2c(Oc3cc(F)ccc3Cl)c(NC(=O)c3cc(F)cc(C(F)(F)F)c3)cc(Br)c21` [Example 81, N-(3-Amino-7-bromo-4-(2-chloro-5-fluorophenoxy)-1-(methylsulfonyl)-1H-indazol-5-yl)-3-fluoro-5-(trifluoromethyl)benzamide]: the IC50 is 1000 to 5000 nM in assay [1] and less than 1000 nM in assay [2].
The like results for `Cn1nccc1-c1cc(NC(=O)c2cc(F)cc(C(F)(F)F)c2)c(Oc2cc(F)ccc2Cl)c2c(N)n[nH]c12` [Example 15, N-(3-Amino-4-(2-chloro-5-fluorophenoxy)-7-(1-methyl-1H-pyrazol-5-yl)-1H-indazol-5-yl)-3-fluoro-5-(trifluoromethyl)benzamide] were, in that order, less than 1000 nM and less than 1000 nM.
For `Nc1n[nH]c2ccc(NC(=O)c3csc4ccccc34)c(Oc3cc(F)ccc3Cl)c12` [Example 18, N-(3-Amino-4-(2-chloro-5-fluorophenoxy)-1H-indazol-5-yl)benzo[b]thiophene-3-carboxamide], in that order: less than 1000 nM and less than 1000 nM.
`Nc1n[nH]c2ccc(NC(=O)c3cc(F)cc(C(F)(F)F)c3)c(Oc3cncc(Cl)c3)c12` [Example 3, N-(3-Amino-4-((5-chloropyridin-3-yl)oxy)-1H-indazol-5-yl)-3-fluoro-5-(trifluoromethyl)benzamide]: the values for the IC50 in assay [1] and in assay [2] were no less than 10000 nM and less than 1000 nM, respectively.
The like results for `Cn1nc(N)c2c(Oc3cc(F)ccc3Cl)c(NC(=O)c3cc(F)cc(C(F)(F)F)c3)cc(C#Cc3ccccn3)c21` [Example 37, N-(3-Amino-4-(2-chloro-5-fluorophenoxy)-1-methyl-7-(pyridin-2-ylethynyl)-1H-indazol-5-yl)-3-fluoro-5-(trifluoromethyl)benzamide] were, in that order, 1000 to 5000 nM and less than 1000 nM.
Turning to `Cn1nc(N)c2c(Oc3cc(F)ccc3Cl)c(NC(=O)c3cc(F)cc(C(F)(F)F)c3)cc(C#CC3CCOC3)c21` (stereo not shown) [Example 41, N-(3-Amino-4-(2-chloro-5-fluorophenoxy)-1-methyl-7-((tetrahydrofuran-3-yl)ethynyl)-1H-indazol-5-yl)-3-fluoro-5-(trifluoromethyl)benzamide], the IC50 was 1000 to 5000 nM in assay [1] and less than 1000 nM in assay [2].
For `Cn1nc(N)c2c(Oc3cc(F)ccc3Cl)c(NC(=O)c3cc(F)cc(C(F)(F)F)c3)cc(/C=C/C#N)c21` [Example 57, (E)-N-(3-amino-4-(2-chloro-5-fluorophenoxy)-7-(2-cyanovinyl)-1-methyl-1H-indazol-5-yl)-3-fluoro-5-(trifluoromethyl)benzamide], the IC50 in assay [1] and in assay [2] was less than 1000 nM throughout.
As for `Cn1nc(N)c2c(Oc3cc(F)ccc3Cl)c(NC(=O)c3cncc(C(F)(F)F)c3)cc(Cl)c21` [Example 62, N-(3-Amino-7-chloro-4-(2-chloro-5-fluorophenoxy)-1-methyl-1H-indazol-5-yl)-5-(trifluoromethyl)nicotinamide], the IC50 is 1000 to 5000 nM in assay [1] and less than 1000 nM in assay [2].
Turning to `CN(C)c1nn(C)c2c(Cl)cc(NC(=O)c3cc(F)cc(C(F)(F)F)c3)c(Oc3cc(F)ccc3Cl)c12` [Example 54, N-(7-chloro-4-(2-chloro-5-fluorophenoxy)-3-(dimethylamino)-1-methyl-1H-indazol-5-yl)-3-fluoro-5-(trifluoromethyl)benzamide], the IC50 in assay [1] and in assay [2] was no less than 10000 nM throughout.
As to `Cn1nc(N)c2c(Oc3cc(F)ccc3Cl)c(NC(=O)c3cc(F)cc(C(F)(F)F)c3)cc(-c3ccc(C(N)=O)cc3)c21` [Example 27, N-(3-Amino-7-(4-carbamoylphenyl)-4-(2-chloro-5-fluorophenoxy)-1-methyl-1H-indazol-5-yl)-3-fluoro-5-(trifluoromethyl)benzamide], the IC50 in assay [1] is 1000 to 5000 nM; in assay [2] it was less than 1000 nM.
For `Cn1nc(N)c2c(Oc3cc(F)ccc3Cl)c(NC(=O)c3cc(F)cc(C(F)(F)F)c3)cc(-c3cncnc3)c21` [Example 29, N-(3-Amino-4-(2-chloro-5-fluorophenoxy)-1-methyl-7-(pyrimidin-5-yl)-1H-indazol-5-yl)-3-fluoro-5-(trifluoromethyl)benzamide], in that order: 1000 to 5000 nM and less than 1000 nM.
As to `Nc1nn2c(=O)c3ccccc3c3cc(NC(=O)c4cc(F)cc(C(F)(F)F)c4)c(Oc4cc(F)ccc4Cl)c1c32` [Example 73, N-(4-Amino-3-(2-chloro-5-fluorophenoxy)-7-oxo-7H-pyrazolo[4,5,1-de]phenanthridin-2-yl)-3-fluoro-5-(trifluoromethyl)benzamide], the IC50 in assay [1] and in assay [2] was less than 1000 nM in each case.
On to `Cn1nc(N)c2c(Oc3cc(F)ccc3Cl)c(NC(=O)c3cc(F)cc(C(F)(F)F)c3)cc(C#CCO)c21` [Example 49, N-(3-Amino-4-(2-chloro-5-fluorophenoxy)-7-(3-hydroxyprop-1-yn-1-yl)-1-methyl-1H-indazol-5-yl)-3-fluoro-5-(trifluoromethyl)benzamide], for which the IC50 in assay [1] and in assay [2] was less than 1000 nM in each case.
Consider `CNC(=O)Cn1nc(N)c2c(Oc3cc(F)ccc3Cl)c(NC(=O)c3cc(F)cc(C(F)(F)F)c3)ccc21` [Example 9, N-(3-Amino-4-(2-chloro-5-fluorophenoxy)-1-(2-(methylamino)-2-oxoethyl)-1H-indazol-5-yl)-3-fluoro-5-(trifluoromethyl)benzamide], for which the results for the IC50 in assay [1] and in assay [2] were 1000 to 5000 nM and less than 1000 nM, respectively.
For `CN1Cc2cc(NC(=O)c3cc(F)cc(C(F)(F)F)c3)c(Oc3cc(F)ccc3Cl)c3c(N)nn(c23)C1=O` [Example 69, N-(2-Amino-3-(2-chloro-5-fluorophenoxy)-7-methyl-8-oxo-7,8-dihydro-6H-pyrazolo[4,5,1-ij]quinazolin-4-yl)-3-fluoro-5-(trifluoromethyl)benzamide], in that order: less than 1000 nM and less than 1000 nM.
As to `Cn1nc(N)c2c(Oc3cc(F)ccc3Cl)c(NC(=O)c3cccc(C(F)(F)F)c3)cc(Cl)c21` [Example 61, N-(3-Amino-7-chloro-4-(2-chloro-5-fluorophenoxy)-1-methyl-1H-indazol-5-yl)-3-(trifluoromethyl)benzamide], the IC50 in assay [1] is 5000 to 10000 nM; in assay [2] it was less than 1000 nM.
As for `Nc1n[nH]c2c(Cl)cc(NC(=O)c3cc(F)cc(C(F)(F)F)c3)c(Oc3cc(F)ccc3Cl)c12` [Example 12, N-(3-Amino-7-chloro-4-(2-chloro-5-fluorophenoxy)-1H-indazol-5-yl)-3-fluoro-5-(trifluoromethyl)benzamide], the IC50 in assay [1] and in assay [2] was less than 1000 nM in each case.
For the compound `Nc1nnc2ccc(NC(=O)c3cc(F)cc(C(F)(F)F)c3)c(Oc3cc(F)ccc3Cl)n12` [Example 20, N-(3-Amino-5-(2-chloro-5-fluorophenoxy)-[1,2,4]triazolo[4,3-a]pyridin-6-yl)-3-fluoro-5-(trifluoromethyl)benzamide], the IC50 in assay [1] was 1000 to 5000 nM; in assay [2], less than 1000 nM.
The like results for `Cn1nc(N)c2c(Oc3cc(F)ccc3Cl)c(NC(=O)c3cc(F)cc(C(F)(F)F)c3)cc(C#CC3(O)CC3)c21` [Example 43, N-(3-Amino-4-(2-chloro-5-fluorophenoxy)-7-((1-hydroxycyclopropyl)ethynyl)-1-methyl-1H-indazol-5-yl)-3-fluoro-5-(trifluoromethyl)benzamide] were, in that order, less than 1000 nM and less than 1000 nM.
For `CCn1nc(N)c2c(Oc3cc(F)ccc3Cl)c(NC(=O)c3cc(F)cc(C(F)(F)F)c3)ccc21` [Example 8, N-(3-Amino-4-(2-chloro-5-fluorophenoxy)-1-ethyl-1H-indazol-5-yl)-3-fluoro-5-(trifluoromethyl)benzamide], the IC50 in assay [1] and in assay [2] was less than 1000 nM in each case.
Consider `Cn1nc(N)c2c(Oc3cc(F)ccc3Cl)c(NC(=O)c3cc(F)cc(C(F)(F)F)c3)cc(CC#N)c21` [Example 31, N-(3-Amino-4-(2-chloro-5-fluorophenoxy)-7-(cyanomethyl)-1-methyl-1H-indazol-5-yl)-3-fluoro-5-(trifluoromethyl)benzamide], for which the IC50 in assay [1] and in assay [2] was less than 1000 nM each time.
Turning to `Nc1n[nH]c2c(CO)cc(NC(=O)c3cc(F)cc(C(F)(F)F)c3)c(Oc3cc(F)ccc3Cl)c12` [Example 23, N-(3-Amino-4-(2-chloro-5-fluorophenoxy)-7-(hydroxymethyl)-1H-indazol-5-yl)-3-fluoro-5-(trifluoromethyl)benzamide], the IC50 in assay [1] and in assay [2] was less than 1000 nM throughout.

For the origin of these results see patent US20260250251A1, “HETEROCYCLIC COMPOUNDS AS PI3Ka INHIBITORS” (Pikavation Therapeutics, Inc., priority 2022, published 2026).
